The source made the active and inactive calls.
What was measured:
[1] = enhancers of respiration in Yfh1-depleted yeast, dose response, Friedreich's ataxia, plus single-dose screen (AID 1465); format: functional;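 also: yeast depleted of Yfh1p frataxin homolog grown on glycerol needing respiration; WST-1 tetrazolium dye reduction as measure of cellular dehydrogenase metabolic activity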
[2] = biological target: Sphingosine 1-phosphate receptor 3 (Homo sapiens, UniProt Q99500); assay: Dose response cell-based high throughput screening assay for antagonists of the Sphingosine 1-Phosphate Receptor 3 (S1P3). [Related pubchem assays: 1429, 485 ]; format: functional
Sphingosine 1-phosphate receptor 3, sequence (Q99500 whole entry): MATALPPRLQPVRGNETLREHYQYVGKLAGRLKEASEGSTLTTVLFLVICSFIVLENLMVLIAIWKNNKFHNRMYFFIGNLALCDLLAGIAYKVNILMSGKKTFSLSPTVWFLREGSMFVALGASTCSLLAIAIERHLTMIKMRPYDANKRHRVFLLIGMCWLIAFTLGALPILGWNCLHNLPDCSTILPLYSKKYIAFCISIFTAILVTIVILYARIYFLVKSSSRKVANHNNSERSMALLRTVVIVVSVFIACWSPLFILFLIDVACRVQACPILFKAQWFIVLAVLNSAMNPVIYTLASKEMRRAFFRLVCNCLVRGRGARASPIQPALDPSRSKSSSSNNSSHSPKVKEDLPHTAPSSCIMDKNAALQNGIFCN

[3] = biological target: 5-hydroxytryptamine receptor 1E (Homo sapiens, UniProt P28566); assay: Counterscreen assay for S1P3 antagonists: Dose response cell-based high throughput screening assay to identify antagonists of the 5-Hydroxytryptamine Receptor Subtype 1E (5HT1E). [Related pubchem assays: 1429, 485 ]; format: functional
5-hydroxytryptamine receptor 1E, sequence (P28566 whole entry): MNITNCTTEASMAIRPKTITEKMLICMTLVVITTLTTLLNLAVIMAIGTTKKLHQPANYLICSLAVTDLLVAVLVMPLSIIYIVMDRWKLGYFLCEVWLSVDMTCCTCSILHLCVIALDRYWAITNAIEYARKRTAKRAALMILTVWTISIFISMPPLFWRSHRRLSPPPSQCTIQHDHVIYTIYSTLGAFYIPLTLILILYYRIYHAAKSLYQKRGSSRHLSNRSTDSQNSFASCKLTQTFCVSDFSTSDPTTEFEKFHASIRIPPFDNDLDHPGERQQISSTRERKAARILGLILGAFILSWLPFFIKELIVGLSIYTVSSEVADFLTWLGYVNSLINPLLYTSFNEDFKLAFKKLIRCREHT

[4] = biological target: T1, E3 ubiquitin-protein ligase XIAP (Homo sapiens, UniProt P98170); assay: XIAP antagonists, biochemical, IAP family, fluorescence polarization (AID 1018); format: functional
T1 sequence (P98170 whole entry): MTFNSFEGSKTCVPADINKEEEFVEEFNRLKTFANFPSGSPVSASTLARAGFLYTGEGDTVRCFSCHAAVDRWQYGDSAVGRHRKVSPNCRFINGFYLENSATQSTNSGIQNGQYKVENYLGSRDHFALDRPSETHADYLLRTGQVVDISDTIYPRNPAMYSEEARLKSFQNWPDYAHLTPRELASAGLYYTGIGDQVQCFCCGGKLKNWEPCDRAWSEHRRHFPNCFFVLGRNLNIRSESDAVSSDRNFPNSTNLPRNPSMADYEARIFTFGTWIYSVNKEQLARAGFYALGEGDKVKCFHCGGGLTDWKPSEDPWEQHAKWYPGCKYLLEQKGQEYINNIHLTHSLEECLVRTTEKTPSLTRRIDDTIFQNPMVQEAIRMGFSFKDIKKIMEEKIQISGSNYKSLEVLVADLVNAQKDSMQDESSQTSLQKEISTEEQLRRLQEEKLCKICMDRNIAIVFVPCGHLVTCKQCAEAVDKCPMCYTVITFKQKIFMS

[5] = biological target: T1, E3 ubiquitin-protein ligase XIAP; assay: Counter Screen using XIAP-Bir3 for Chemical Antagonists of Bir1/2 domains of IAP-family anti-apoptotic proteins. [Related pubchem assays (depositor defined):AID1018, AID1449, AID1514, AID1638, AID1749, AID1750, AID488957, AID488963]
[6] = biological target: Solute carrier family 12 member 2/member 5 (Homo sapiens, UniProt P55011+Q9H2X9); assay: KCC2 and NKCC1 inhibition by rubidium flux, cell-based, NKCC1 counter-screen (AID 1734); format: functional, HEK293
[7] = M. tuberculosis H37Rv growth inhibitors, H37Rv strain (AID 1626); format: functional
[8] = Luminescent dose response cell-based high throughput screening assay for inhibitors of the Janus kinase 2 mutant JAK2V617F. [Related pubchem assays: 1446 (Primary screen.), 1521 (Confirmation assay.), 1486 (Counter screen.)]; format: functional
[9] = biological target: Peroxisome proliferator-activated receptor gamma/Nuclear receptor corepressor 2 (Homo sapiens, UniProt P37231+Q9Y618); assay: Counterscreen for NR2E3 inverse agonists: TR-FRET-based biochemical high throughput dose response assay to identify inverse agonists of the interaction between peroxisome proliferator-activated receptor gamma (PPARg) and nuclear receptor co-repressor 2 (NCOR2).; format: functional
Peroxisome proliferator-activated receptor gamma/Nuclear receptor corepressor 2, sequence (P37231 whole entry): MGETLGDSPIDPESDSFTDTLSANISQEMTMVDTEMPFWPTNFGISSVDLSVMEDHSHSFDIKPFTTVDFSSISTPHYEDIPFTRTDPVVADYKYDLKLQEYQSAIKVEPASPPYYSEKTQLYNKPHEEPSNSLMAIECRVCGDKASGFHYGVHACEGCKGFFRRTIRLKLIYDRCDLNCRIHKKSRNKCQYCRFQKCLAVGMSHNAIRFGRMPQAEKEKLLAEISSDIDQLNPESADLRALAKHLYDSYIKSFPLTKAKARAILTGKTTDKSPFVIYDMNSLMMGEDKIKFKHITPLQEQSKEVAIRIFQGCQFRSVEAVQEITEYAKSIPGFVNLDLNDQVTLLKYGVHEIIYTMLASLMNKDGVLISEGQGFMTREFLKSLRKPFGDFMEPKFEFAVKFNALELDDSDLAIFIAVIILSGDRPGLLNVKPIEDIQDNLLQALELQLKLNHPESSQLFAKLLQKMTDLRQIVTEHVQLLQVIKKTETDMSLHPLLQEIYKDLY
Peroxisome proliferator-activated receptor gamma/Nuclear receptor corepressor 2, sequence (Q9Y618 whole entry): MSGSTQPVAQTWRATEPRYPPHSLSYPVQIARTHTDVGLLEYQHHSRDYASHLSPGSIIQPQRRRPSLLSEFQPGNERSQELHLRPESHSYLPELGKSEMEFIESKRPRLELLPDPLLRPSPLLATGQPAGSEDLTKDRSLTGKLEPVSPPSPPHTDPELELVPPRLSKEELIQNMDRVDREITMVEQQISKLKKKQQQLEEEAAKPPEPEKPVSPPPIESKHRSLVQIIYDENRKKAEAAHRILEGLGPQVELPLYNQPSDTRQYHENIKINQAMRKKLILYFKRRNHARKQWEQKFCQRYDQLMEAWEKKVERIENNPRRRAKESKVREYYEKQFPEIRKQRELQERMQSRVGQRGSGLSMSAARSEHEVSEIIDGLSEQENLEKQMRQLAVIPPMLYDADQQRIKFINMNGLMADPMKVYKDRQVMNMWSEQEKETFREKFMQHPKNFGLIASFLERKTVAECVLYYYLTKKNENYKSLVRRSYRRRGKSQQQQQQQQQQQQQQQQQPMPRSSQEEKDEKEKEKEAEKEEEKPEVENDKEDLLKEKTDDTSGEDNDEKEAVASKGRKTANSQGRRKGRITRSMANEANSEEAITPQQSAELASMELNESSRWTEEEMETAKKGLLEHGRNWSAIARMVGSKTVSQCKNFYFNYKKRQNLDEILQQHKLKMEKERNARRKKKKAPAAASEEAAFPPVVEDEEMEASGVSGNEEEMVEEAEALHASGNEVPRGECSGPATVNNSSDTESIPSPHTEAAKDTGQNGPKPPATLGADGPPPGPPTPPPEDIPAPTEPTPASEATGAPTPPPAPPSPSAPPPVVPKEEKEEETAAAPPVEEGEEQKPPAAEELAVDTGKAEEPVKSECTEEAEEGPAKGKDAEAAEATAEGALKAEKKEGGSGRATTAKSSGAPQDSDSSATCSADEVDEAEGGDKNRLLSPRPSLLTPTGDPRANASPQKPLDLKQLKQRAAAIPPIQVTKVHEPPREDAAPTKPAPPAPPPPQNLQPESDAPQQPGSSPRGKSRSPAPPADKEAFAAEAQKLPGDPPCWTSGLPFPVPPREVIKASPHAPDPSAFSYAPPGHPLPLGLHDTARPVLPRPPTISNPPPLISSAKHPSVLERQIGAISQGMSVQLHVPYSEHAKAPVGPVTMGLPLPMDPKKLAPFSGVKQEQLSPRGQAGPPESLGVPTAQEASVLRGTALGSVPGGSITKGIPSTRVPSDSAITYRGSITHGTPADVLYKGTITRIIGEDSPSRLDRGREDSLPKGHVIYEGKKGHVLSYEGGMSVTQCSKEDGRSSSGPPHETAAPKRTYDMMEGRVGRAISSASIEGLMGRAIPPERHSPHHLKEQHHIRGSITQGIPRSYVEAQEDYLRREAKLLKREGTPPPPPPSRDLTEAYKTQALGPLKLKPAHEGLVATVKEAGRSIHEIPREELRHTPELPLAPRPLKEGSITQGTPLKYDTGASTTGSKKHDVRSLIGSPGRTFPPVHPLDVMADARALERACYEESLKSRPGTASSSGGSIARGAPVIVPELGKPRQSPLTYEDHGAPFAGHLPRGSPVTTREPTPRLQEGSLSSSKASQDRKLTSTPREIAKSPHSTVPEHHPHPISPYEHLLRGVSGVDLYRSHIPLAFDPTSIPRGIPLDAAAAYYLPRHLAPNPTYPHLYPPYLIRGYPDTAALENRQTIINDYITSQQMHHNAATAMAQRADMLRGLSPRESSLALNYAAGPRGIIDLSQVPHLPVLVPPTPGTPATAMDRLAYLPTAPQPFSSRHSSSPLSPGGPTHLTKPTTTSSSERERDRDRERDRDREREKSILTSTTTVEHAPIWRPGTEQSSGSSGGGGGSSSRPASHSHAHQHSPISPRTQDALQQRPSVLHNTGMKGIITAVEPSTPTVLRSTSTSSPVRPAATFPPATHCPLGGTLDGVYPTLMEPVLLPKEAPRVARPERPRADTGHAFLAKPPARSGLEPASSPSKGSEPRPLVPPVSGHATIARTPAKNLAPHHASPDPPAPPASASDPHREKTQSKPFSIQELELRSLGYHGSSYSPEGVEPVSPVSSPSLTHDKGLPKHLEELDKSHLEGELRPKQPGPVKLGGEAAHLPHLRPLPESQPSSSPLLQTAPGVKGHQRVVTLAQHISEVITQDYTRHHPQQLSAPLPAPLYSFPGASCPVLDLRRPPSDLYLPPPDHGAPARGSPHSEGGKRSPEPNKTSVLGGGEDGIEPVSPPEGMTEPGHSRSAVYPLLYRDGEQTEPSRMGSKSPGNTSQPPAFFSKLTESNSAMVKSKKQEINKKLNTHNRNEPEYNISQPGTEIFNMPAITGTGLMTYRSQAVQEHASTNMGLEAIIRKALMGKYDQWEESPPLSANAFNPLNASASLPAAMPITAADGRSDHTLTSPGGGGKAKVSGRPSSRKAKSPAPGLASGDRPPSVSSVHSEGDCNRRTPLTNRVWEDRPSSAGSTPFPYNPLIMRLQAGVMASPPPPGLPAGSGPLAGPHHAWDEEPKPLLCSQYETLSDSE

[10] = biological target: Photoreceptor-specific nuclear receptor (Homo sapiens, UniProt Q9Y5X4); assay: NR2E3 inverse agonists, dose response, biochemical, TR-FRET (AID 463256); format: functional
Photoreceptor-specific nuclear receptor, sequence (Q9Y5X4 whole entry): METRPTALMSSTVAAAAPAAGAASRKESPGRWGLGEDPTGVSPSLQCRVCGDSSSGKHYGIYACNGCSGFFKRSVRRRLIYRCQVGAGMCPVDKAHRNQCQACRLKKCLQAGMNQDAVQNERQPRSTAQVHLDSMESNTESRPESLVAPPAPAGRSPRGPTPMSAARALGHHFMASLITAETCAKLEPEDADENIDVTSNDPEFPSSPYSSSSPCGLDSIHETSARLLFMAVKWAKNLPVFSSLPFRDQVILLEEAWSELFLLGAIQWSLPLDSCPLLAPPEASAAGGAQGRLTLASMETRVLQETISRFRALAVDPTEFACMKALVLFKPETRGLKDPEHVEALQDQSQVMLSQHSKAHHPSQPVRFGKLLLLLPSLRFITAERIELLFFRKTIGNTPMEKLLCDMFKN

For `CCCOc1ccc(C2NC(S)=NC(c3ccccc3)=C2C(=O)Nc2ccc(C)cc2)cc1OC` (stereo not given), the EC50 [1] was > 100 µM (active).

With `Cc1ccccc1C(=O)N1CCN(c2ccc(NC(=O)c3ccc4c(c3)OCO4)cc2)CC1` the IC50 [2] was > 50 µM (not active) and the IC50 [3] was 13.7 µM (not active).

With `O=C(Nc1ccccc1)c1cc(S(=O)(=O)N2CCSCC2)ccc1Cl` the IC50 [4] was > 100 µM (not active) and the IC50 [5] was > 100 µM (inactive).

For `O=C(Cn1cnc2c(nnn2Cc2ccccc2)c1=O)N1CCCc2ccccc21`, the IC50 [6] was 6 µM (active).

For `CCOC(=O)c1ccc(NC(=O)Cn2cccc2)cc1`, the IC50 [7] was > 100 µM (active).

With `COc1ccc(-c2cnc3c(c2)CCC3(C#N)C#N)cc1` the IC50 [8] was 0.768 µM (active).

For `CC1(C)Cc2ccccc2-c2nnc(SCC(=O)N3CCc4ccccc43)n21`, the IC50 [9] was 7.95 µM (active) and the IC50 [10] was 4.42 µM (active).
